System: HT-1080 fibrosarcoma cells
Test: HT-1080 single-concentration cell viability screen (Cell Titer Glo)
Format: cell-based
Details: 10 μM compound, 48 hours, duplicate, fraction of control
From the text: To identify potential covalent inhibitors of GPX4, we screened a panel of 294 diverse small molecules from the Enamine covalent inhibitor library (Catalog No. CSL-10480-0-Z-10, Enamine, Monmouth, NJ). Each compound contains either a chloroacetamide or acrylamide moiety theoretically capable of forming a covalent bond with a selenocysteine. The small molecule compounds were selected for a diversity of backbone structures. The screening protocol used the cell viability assay Cell Titer Glo® (available from Promega, Madison, WI). Cell Titer Glo® is a luminescent cell viability that determines the number of viable cells in culture by quantifying ATP, which indicates the presence of metabolically active cells. Briefly, HT-1080 fibrosarcoma cells were plated 24 hours prior to treatment with 10 µM of each compound in the screening panel. Cell Titer Glo® was used to read out cell viability after 48 hours of compound exposure. Data was collected in duplicate.
To determine whether similar molecules could offer other starting points for a medicinal chemistry campaign, we screened 95 additional compounds that contain a similar base structure to that of 8216. Briefly, HT-1080 fibrosarcoma cells were treated with 10 µM of a compound for 48 hours and cell viability was measured by Cell Titer Glo®. Data was collected in duplicate. […]

| SMILES | Average relative cell viability |
| --- | --- |
| CC(C)(C)n1nnc(CN(Cc2cccc(C3CC3)c2F)C(=O)CCl)n1 [Compound Z4425210960] | 0.01925 |
| Cc1cc(CN(C(=O)CCl)c2ccc(F)cc2)nn1C [Compound Z3837055210] | 0.001584 |
| O=C(CCl)N(Cc1ccc(F)cc1)c1nc(-c2ccccc2)cs1 [Compound Z147647938] | 0.000936 |
| O=C(CCl)N(Cc1ccccc1)CC1(O)CCOC1 (centres unmarked) [Compound Z1687602192] | 0.1445 |
| CC(C)n1nccc1CN(CC1CCCC1)C(=O)CCl [Compound Z3837300268] | 0.00828 |
| O=C(CCl)N(CCc1ccccc1)Cc1ccccc1 [Compound Z56891378] | 0.001872 |
| O=C(CCl)N(Cc1ccnn1C1CCC1)C1CC=CCC1 (centres unmarked) [Compound Z4323362848] | 0.001626 |
| O=C(CCl)N(Cc1cc(F)ccc1F)CC1CCOCC1 [Compound Z3837255186] | 0.1331 |
| Cn1nnc(CN(C(=O)CCl)C2CCCCCCC2)n1 [Compound Z4323320274] | 0.002922 |
| Cc1cc(F)ccc1N(Cc1ccnn1C(C)C)C(=O)CCl [Compound Z3837096793] | 0.1701 |
| O=C(CCl)N(Cc1ccc2c(c1)CCC2)CC1(CCO)CC1 [Compound Z4323486432] | 0.004428 |
| O=C(CCl)N(Cc1ccccc1)c1nc(-c2ccc(Br)cc2)cs1 [Compound Z56926666] | 0.008622 |
| Cc1ccc(CN(Cc2cnn(C)c2)C(=O)CCl)cc1C [Compound Z3837366035] | 0.531 |
| O=C(CCl)N(Cc1cccs1)C1CCS(=O)(=O)C1 (centres unmarked) [Compound Z90122115] | 0.05782 |
| O=C(CCl)N(Cc1ccco1)C1=CCCCC1 [Compound Z89264994] | 0.01228 |
| Cc1cc(CN(Cc2ccn(C)n2)C(=O)CCl)ccc1F [Compound Z3837152585] | 0.007686 |

| SMILES | Average relative cell viability |
| --- | --- |
| O=C(CCl)N(CC1=CCCCC1)Cc1cc(-c2ccc(Cl)cc2)on1 [Compound Z4425210932] | 0.001926 |
| Cc1csc(CN(C(=O)CCl)c2cccc(F)c2C)n1 [Compound Z3837197646] | 0.01316 |
| CC1(C)CC(N(Cc2ccccc2)C(=O)CCl)C(C)(C)O1 (centres unmarked) [Compound Z3766271747] | 0.005616 |
| CN(Cc1nc2c(cnn2C)c(=O)[nH]1)C(=O)CCl [Compound Z3337549802] | 1.034 |
| Cc1cccc(N(Cc2ccccc2)C(=O)CCl)c1 [Compound Z57052885] | 0.002244 |
| O=C(CCl)N(Cc1cccs1)CC1CCCO1 (centres unmarked) [Compound Z147647920] | 0.04392 |
| N#Cc1ccc(CN(C(=O)CCl)C2CC2)c(F)c1 [Compound Z3952175125] | 0.8876 |
| O=C(CCl)N(Cc1noc2c1CCCC2)c1ccccc1F [Compound Z4323314193] | 0.00483 |
| O=C(CCl)N(CCc1ccc(F)cc1)Cc1cnc(C2CCOCC2)o1 [Compound Z4425211012] | 0.0748 |
| Cl.O=C(CCl)N(Cc1cn2ccccc2n1)C1CC1 [Compound Z4283095766] | 0.9342 |
| COc1cccc(CN(CC2CCCO2)C(=O)CCl)c1F (centres unmarked) [Compound Z3837050450] | 0.5148 |
| Cc1ccc2sc(N(Cc3ccccc3)C(=O)CCl)nc2c1C [Compound Z147647684] | 0.006576 |
| O=C(CCl)N(Cc1ccns1)c1ccc2c(c1)OCCO2 [Compound Z3837046637] | 0.00972 |
| CCN1CCCC(CN(C)C(=O)CCl)C1c1cnn(C)c1 (centres unmarked) [Compound Z3766270794] | 0.003474 |
| O=C(CCl)N(Cc1ccccc1O)Cc1ccccc1O [Compound Z3952174992] | 0.1517 |
| O=C(CCl)N(Cc1cccc2ccoc12)C1CCCOCC1 (centres unmarked) [Compound Z4323385212] | 0.003768 |

— patent publication US20240315994A1, “SMALL MOLECULE MODULATORS OF FERROPTOSIS” (ARPEGGIO BIOSCIENCES, INC., priority 2021, published 2024)
